IC50 and Ratio IC50 data for 13 compounds are collected here from ChEMBL document CHEMBL1143392, “Synthesis and cyclooxygenase inhibition of various (aryl-1,2,3-triazole-1-yl)-methanesulfonylphenyl derivatives” (Bioorg Med Chem, 2009).

Molecules are shown by their SMILES.

For assay [1], the target named is T1, Prostaglandin G/H synthase 2 (Homo sapiens, UniProt P35354).
T1 sequence (P35354 whole entry): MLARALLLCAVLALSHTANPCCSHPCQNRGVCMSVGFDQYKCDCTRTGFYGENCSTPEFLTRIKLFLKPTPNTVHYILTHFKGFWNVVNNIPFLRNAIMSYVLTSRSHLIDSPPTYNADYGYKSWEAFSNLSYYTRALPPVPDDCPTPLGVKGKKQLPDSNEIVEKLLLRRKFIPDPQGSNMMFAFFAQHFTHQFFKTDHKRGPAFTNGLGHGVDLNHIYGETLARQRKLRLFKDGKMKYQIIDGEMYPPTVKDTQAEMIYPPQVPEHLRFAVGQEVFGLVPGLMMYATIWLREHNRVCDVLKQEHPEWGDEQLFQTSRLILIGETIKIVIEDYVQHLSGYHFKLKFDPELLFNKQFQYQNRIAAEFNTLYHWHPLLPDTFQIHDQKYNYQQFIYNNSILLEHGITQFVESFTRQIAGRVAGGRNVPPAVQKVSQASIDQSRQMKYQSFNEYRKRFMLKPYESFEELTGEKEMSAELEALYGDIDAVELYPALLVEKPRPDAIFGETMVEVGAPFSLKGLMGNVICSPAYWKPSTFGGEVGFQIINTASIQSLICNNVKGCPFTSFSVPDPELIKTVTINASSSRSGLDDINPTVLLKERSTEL
Briefly: Inhibition of COX2 by enzyme immunoassay.

Assay [2] in a line: Selectivity index, ratio of IC50 for COX1 to IC50 COX2.
In assay [3] the target is Prostaglandin G/H synthase 1 (Homo sapiens, UniProt P23219). Briefly: Inhibition of COX1 by enzyme immunoassay.
Prostaglandin G/H synthase 1, sequence (P23219 whole entry): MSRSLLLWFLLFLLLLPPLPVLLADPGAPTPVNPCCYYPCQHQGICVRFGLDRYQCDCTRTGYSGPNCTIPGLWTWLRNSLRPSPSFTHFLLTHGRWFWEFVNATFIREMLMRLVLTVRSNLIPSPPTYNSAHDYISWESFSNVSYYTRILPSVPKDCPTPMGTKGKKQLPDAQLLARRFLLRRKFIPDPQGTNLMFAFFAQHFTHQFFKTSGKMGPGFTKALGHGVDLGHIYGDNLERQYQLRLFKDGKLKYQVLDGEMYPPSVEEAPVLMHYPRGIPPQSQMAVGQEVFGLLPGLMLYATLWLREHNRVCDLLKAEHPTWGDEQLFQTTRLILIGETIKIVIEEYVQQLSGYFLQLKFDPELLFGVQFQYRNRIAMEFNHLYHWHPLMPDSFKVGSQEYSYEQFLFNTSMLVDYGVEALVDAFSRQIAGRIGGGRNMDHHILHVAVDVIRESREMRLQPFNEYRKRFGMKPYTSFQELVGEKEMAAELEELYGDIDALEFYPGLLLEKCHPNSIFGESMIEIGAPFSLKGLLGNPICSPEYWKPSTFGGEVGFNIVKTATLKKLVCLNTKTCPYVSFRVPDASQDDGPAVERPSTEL

As usually defined, the IC50 is the midpoint of a concentration-inhibition curve. For the compound `CS(=O)(=O)c1ccc(-n2nncc2-c2ccc(Cl)cc2)cc1`, the IC50 was found to be 40 nM in assay [1] and 700 nM in assay [3]. In assay [2], the Ratio IC50 turned out to be 17.5.

Consider `CS(=O)(=O)c1ccc(-n2nncc2-c2ccccc2)cc1`, for which the IC50 turned out to be 110 nM in assay [1] and 810 nM in assay [3]. The Ratio IC50 in assay [2] is 7.5.

Compound `COc1ccc(C2=C(c3ccc(S(C)(=O)=O)cc3)CCC2)cc1` returned an IC50 in assay [3] of 5000 nM.

For `Cc1ccc(-c2cn(-c3ccc(S(C)(=O)=O)cc3)nn2)cc1`, the IC50 stood at 2500 nM in assay [1] and 45000 nM in assay [3]. For the same compound, the Ratio IC50 in assay [2] amounted to 18.

For the compound `CS(=O)(=O)c1ccc(-n2cc(-c3ccc(Cl)cc3)nn2)cc1`, the IC50 in assay [1] was 190 nM; in assay [3], 12200 nM. Further, the Ratio IC50 in assay [2] turned out to be 64.

On to `COc1ccc(-c2cnnn2-c2ccc(S(C)(=O)=O)cc2)cc1`, for which the figures for the IC50 in assay [1] and in assay [3] were 170 nM and 830 nM, respectively. Besides, the Ratio IC50 in assay [2] worked out at 4.9.

As to `COc1ccc(-c2cn(-c3ccc(S(C)(=O)=O)cc3)nn2)cc1`, the IC50 in assay [1] worked out at 2500 nM; in assay [3] it was 10000 nM. In assay [2], the Ratio IC50 amounted to 4.

As for `CN(C)c1ccc(-c2cnnn2-c2ccc(S(C)(=O)=O)cc2)cc1`, the IC50 was determined as 360 nM in assay [1] and 840 nM in assay [3]. Further, in assay [2], the Ratio IC50 stood at 2.3.

Take `CS(=O)(=O)c1ccc(-n2cc(-c3ccc(F)cc3)nn2)cc1`: the IC50 in assay [1] stood at 210 nM; in assay [3], 12500 nM. Further, the Ratio IC50 in assay [2] turned out to be 59.

On to `CN(C)c1ccc(-c2cn(-c3ccc(S(C)(=O)=O)cc3)nn2)cc1`, for which the IC50 in assay [1] is > 10000 nM; in assay [3], > 100000 nM.

`CS(=O)(=O)c1ccc(-n2cc(-c3ccccc3)nn2)cc1`: the IC50 in assay [1] was 150 nM; in assay [3], 20800 nM. Besides, the Ratio IC50 in assay [2] is 139.

As to `CS(=O)(=O)c1ccc(-n2nncc2-c2ccc(F)cc2)cc1`, the IC50 in assay [1] is 30 nM; in assay [3] it was 910 nM. In assay [2], the Ratio IC50 was 30.3.

Consider `Cc1ccc(-c2cnnn2-c2ccc(S(C)(=O)=O)cc2)cc1`, for which the IC50 in assay [1] is 120 nM; in assay [3], 780 nM. Moreover, in assay [2], the Ratio IC50 is 6.5.
